From ChEMBL document CHEMBL1137114, “Antituberculous activity of some aryl semicarbazone derivatives” (2004)

Legend:
[1] = system: Mycobacterium tuberculosis; test: Antimycobacterial activity of compound against Mycobacterium tuberculosis H37Rv at 6.25 ug/mL; assay type: functional
[2] = system: Mycobacterium tuberculosis; test: Antimycobacterial activity of compound against Mycobacterium tuberculosis H37Rv at 1.56 ug/mL; assay type: functional
[3] = system: Mycobacterium tuberculosis; test: Antimycobacterial activity of compound against Mycobacterium tuberculosis H37Rv at 5 ug/mL; assay type: functional
[4] = system: Mycobacterium tuberculosis; test: Antimycobacterial activity of compound against Mycobacterium tuberculosis H37Rv at 8 ug/mL; assay type: functional
[5] = system: Mycobacterium tuberculosis; test: Antimycobacterial activity of compound against Mycobacterium tuberculosis H37Rv at 2 ug/mL; assay type: functional
[6] = system: Mycobacterium tuberculosis; test: Antimycobacterial activity of compound against Mycobacterium tuberculosis H37Rv at 1.88 ug/mL; assay type: functional
[7] = system: Mycobacterium tuberculosis; test: Antimycobacterial activity of compound against Mycobacterium tuberculosis H37Rv at 2.50 ug/mL
[8] = system: Mycobacterium tuberculosis; test: Antimycobacterial activity of compound against Mycobacterium tuberculosis H37Rv at 0.05 ug/mL; assay type: functional
[9] = system: Mycobacterium tuberculosis; test: Antimycobacterial activity of compound against Mycobacterium tuberculosis H37Rv at 0.125 ug/mL; assay type: functional

Compound	inhibition at 6.25 µg/mL [1]	also measured
CC(=O)Nc1ccc(NC(=O)N/N=C/c2ccccc2[N+](=O)[O-])cc1	90%	
Cc1c(Cl)cccc1NC(=O)N/N=C/c1ccccc1O	0%	
CC(=O)Nc1ccc(NC(=O)N/N=C/c2ccc([N+](=O)[O-])cc2)cc1	95%	
Cc1c(Cl)cccc1NC(=O)N/N=C/c1ccccc1[N+](=O)[O-]	10%	
CC(=O)Nc1ccc(NC(=O)N/N=C/c2ccccc2O)cc1	5%	
CC(=O)Nc1ccc(NC(=O)N/N=C/c2ccc(N(C)C)cc2)cc1	2%	
Cc1c(Cl)cccc1NC(=O)N/N=C/c1ccc(N(C)C)cc1	0%	
Cc1c(Cl)cccc1NC(=O)N/N=C/c1cccc([N+](=O)[O-])c1	58%	
CC(=O)Nc1ccc(NC(=O)N/N=C/c2cccc([N+](=O)[O-])c2)cc1		inhibition at 1.56 µg/mL [2]: 100%
Cc1c(Cl)cccc1NC(=O)N/N=C/c1ccc([N+](=O)[O-])cc1	24%	
NC[C@H]1O[C@H](O[C@H]2[C@H](O)[C@@H](O[C@H]3O[C@H](CO)[C@@H](O)[C@H](N)C3O)[C@H](N)C[C@@H]2N)[C@H](O)[C@@H](O)[C@@H]1O (single isomer, unassigned) [KANAMYCIN]		inhibition at 5 µg/mL [3]: 90%
Nc1ccc(C(=O)O)c(O)c1 [AMINOSALICYLIC ACID]		inhibition at 8 µg/mL [4]: 92%
O=C(O)c1cn(C2CC2)c2cc(N3CCNCC3)c(F)cc2c1=O [CIPROFLOXACIN]		inhibition at 2 µg/mL [5]: 95%
CC[C@@H](CO)NCCN[C@@H](CC)CO [ETHAMBUTOL]		inhibition at 1.88 µg/mL [6]: 90%
CCc1cc(C(N)=S)ccn1 [ETHIONAMIDE]		inhibition at 2.5 µg/mL [7]: 90%
NNC(=O)c1ccncc1 [ISONIAZID]		inhibition at 0.05 µg/mL [8]: 95%
CO[C@H]1/C=C/O[C@@]2(C)Oc3c(C)c(O)c4c(O)c(c(/C=N/N5CCN(C)CC5)c(O)c4c3C2=O)NC(=O)/C(C)=C\C=C\[C@H](C)[C@H](O)[C@@H](C)[C@@H](O)[C@@H](C)[C@H](OC(C)=O)[C@@H]1C [RIFAMPIN]		inhibition at 0.125 µg/mL [9]: 95%
